From US7705188B2 (Arizona Board of Regents, a body corporate of the State of …, priority 2002, dated 2010) come the findings set out here.

One data set deals with BXPC-3. The experiment in a line: Cytotoxicity, pancreas-a BXPC-3. The class given is cell-based, human. Conditions: for GI50: Homo sapiens, BXPC-3, BXPC-3.
The subject of another data set is MCF-7. Kind of data set: Cytotoxicity, breast MCF-7. Conditions: for GI50: Homo sapiens, MCF7. The data set is classed as cell-based, human.
The test system of the next data set is SF-268. The experiment in a line: Cytotoxicity, CNS SF-268. The class given is cell-based, human. Conditions: for GI50: Homo sapiens, SF-268, SF-268, read-out: CNS SF-268 GI50.
Another data set deals with NCI-H460. Kind of data set: Cytotoxicity, lung-NSC NCI-H460. The data set is classed as cell-based, human. Conditions: for GI50: Homo sapiens, NCI-H460, NCI-H460, read-out: Lung-NSC NCI-H460 GI50.
Another data set deals with KM201.2. The experiment in a line: Cytotoxicity, colon KM201.2. The class given is cell-based, human. Conditions: KM201.2; for GI50: Homo sapiens, read-out: Colon KM201.2 GI50.
In another data set the test system is DU-145. Kind of data set: Cytotoxicity, prostate DU-145. The data set is classed as cell-based, human. Conditions: for GI50: Homo sapiens, DU-145, DU-145.
For data set [1], the system named is P-388 and human tumor cell lines. The experiment in a line: Cytotoxicity, summary over P-388 and human tumor cell lines. The data set is classed as cell-based.

A word on the GI50: it is the concentration at which growth is held to half of that of the control.

Converted amounts (≈) assume the structure as drawn.

Turning to `Oc1ccc(/C=C\c2cc(O)cc(O)c2)cc1` [Compound 1b, cis-Resveratrol], the GI50 turned out to be 15.5 µg/mL (≈ 67.9 µM) in the data set with BXPC-3; 14.8 µg/mL (≈ 64.8 µM) with MCF-7; 5 µg/mL (≈ 21.9 µM) with SF-268; 13.2 µg/mL (≈ 57.8 µM) with NCI-H460; 22 µg/mL (≈ 96.4 µM) in the data set on KM201.2; 10.2 µg/mL (≈ 44.7 µM) with DU-145. Further, in data set [1], the “Cytotoxicity against cancer cell lines, comparison in words” value (shortened to “Cytotoxicity against cancer cell lines”) is given as “slightly less inhibitory effects on the cancer cell lines tested than did the trans-isomer”.

In the case of `COc1ccc(C=Cc2cc(OC)cc(OC)c2)cc1` [Compound 4b, 3,4′,5-trimethoxystilbene], the “Pancreas-a BXPC-3 GI50” value in the data set with BXPC-3 was 0.35 µg/mL. The “CNS SF-268 GI50” value in the data set on SF-268 is 0.56 µg/mL. Further, the “Lung-NSC NCI-H460 GI50” value in the data set on NCI-H460 stood at 0.62 µg/mL. In addition, the “Prostate DU-145 GI50” value with DU-145 was 1.5 µg/mL. Further, the “Cytotoxicity against cancer cell lines” value in data set [1] is recorded as “superior in activity to resveratrol (1)”.

Take `COc1cc(/C=C/c2ccc(O)cc2)cc(OC)c1` [Compound 14d, (E)-3,5-dimethoxy-4′-hydroxy-stilbene]: the GI50 in the data set on BXPC-3 came out at 6.5 µg/mL (≈ 25.4 µM); with MCF-7, 2.3 µg/mL (≈ 8.97 µM); in the data set with SF-268, 4.3 µg/mL (≈ 16.8 µM); with NCI-H460, 2.7 µg/mL (≈ 10.5 µM); in the data set with KM201.2, 3.4 µg/mL (≈ 13.3 µM); in the data set on DU-145 it was 2.7 µg/mL (≈ 10.5 µM). In data set [1], the “Cytotoxicity against cancer cell lines” value was “slightly less active than their cis counterparts”.

For the compound `COc1ccc(C=Cc2cc(O)cc(OC)c2)cc1` [Compound 14g, 3-hydroxy-4′,5-dimethoxystilbene], the “Cytotoxicity against cancer cell lines” value in data set [1] is “comparable to that of resveratrol”.

In the case of `COc1ccc(C=Cc2cc(O)cc(O)c2)cc1` [Compound 14l, 3,5-dihydroxy-4′-methoxy-stilbene], in the data set with BXPC-3, the “Pancreas-a BXPC-3 GI50” value is 6.3 µg/mL. Further, the “Breast MCF-7 GI50” value in the data set with MCF-7 was 3.4 µg/mL. Further, in the data set on SF-268, the “CNS SF-268 GI50” value is 3.1 µg/mL. For the same compound, in the data set with NCI-H460, the “Lung-NSC NCI-H460 GI50” value amounted to 6.8 µg/mL. Besides, the “Colon KM201.2 GI50” value with KM201.2 came out at 3.8 µg/mL. Further, the “Prostate DU-145 GI50” value with DU-145 worked out at 2.7 µg/mL. Also, the “Cytotoxicity against cancer cell lines” value in data set [1] is on record as “slightly less active than their cis counterparts”.

Consider `COc1cc(/C=C\c2ccccc2)cc(OC)c1OP(=O)(OCc1ccccc1)OCc1ccccc1` [Compound 14m, (Z)-3,5-dimethoxy-4-[O-bis(benzyl)phosphoryl]-stilbene], for which the “Pancreas-a BXPC-3 GI50” value in the data set on BXPC-3 came out at 5.4 µg/mL. Moreover, the “Breast MCF-7 GI50” value in the data set on MCF-7 was 9.0 µg/mL. Moreover, the “CNS SF-268 GI50” value with SF-268 is 38.5 µg/mL. In addition, in the data set on NCI-H460, the “Lung-NSC NCI-H460 GI50” value was determined as 10.7 µg/mL. Besides, the “Colon KM201.2 GI50” value in the data set with KM201.2 came out at 24.7 µg/mL. Moreover, the “Prostate DU-145 GI50” value in the data set with DU-145 is 35.6 µg/mL.

For `COc1ccc(C(O)c2cc(OC)cc(OC)c2)cc1` (stereo not shown) [Compound 15a], the “Pancreas-a BXPC-3 GI50” value in the data set with BXPC-3 was found to be 16.1 µg/mL. Besides, the “CNS SF-268 GI50” value with SF-268 is 23.3 µg/mL. The “Lung-NSC NCI-H460 GI50” value with NCI-H460 is 21.7 µg/mL. In addition, in the data set with KM201.2, the “Colon KM201.2 GI50” value was 21.0 µg/mL. For the same compound, the “Prostate DU-145 GI50” value in the data set on DU-145 is 23.2 µg/mL.

On to “Sodium Resverastatin Phosphate [Compound 14n]”, for which, in the data set on MCF-7, the “Breast MCF-7 GI50” value was found to be 0.73 µg/mL. Besides, in data set [1], the “Cytotoxicity against cancer cell lines” value is “essentially identical to 14c”.
